Test results as given in patent US20250170124A1, “METHODS OF DIAGNOSING AND TREATING NEURODEGENERATIVE DISEASES” (The General Hospital Corporation, priority 2022, published 2025).
Like-named read-outs stand apart in the source and are kept apart here.

Tests used:
alpha-synuclein = experiment: ELISA secondary screen for alpha-synuclein in SH-SY5Y cells; format: cell-based, human; design: Decrease syn(%) SHSY5Y cells: unit of the concentration uncertain; conditions: for Decrease αsyn(%) SHSY5Y cells: Table 2; for Decrease syn(%) SHSY5Y cells: Table 3
Experimental: FIG. 2 illustrates the results of ELISA experiments with compound 10 in SH-SY5Y cells. […]
FIG. 18 illustrates alpha Synuclein ELISA (Invitrogen) measurements from SHSY5 undifferentiated neurons treated with the indicated doses (triplicate wells) of compounds 2, 13, 11, 14, 15, and 16) for 48 h.
A human ASYN ELISA kit was utilized for all ELISA experiments (Invitrogen alpha-synuclein ELISA kit KHB0061) and the kit protocol was followed.
1) Plate SH-SY5Y […] cells (Corning, 3570) at 10,000 cells/well in 50 μL phenol red free media (phenol red-free DMEM with 4.5 g/L D-glucose [Lonza, 12-917F] supplemented with 10% FBS [Lonza, 14-503E], 200 μM L-glutamine [Lonza, 17-605E], 100 μM penstrep [Lonza, 17-602E] and 200 μg/mL geneticin [Invitrogen, 10131-027]).
2) Lid plates, then incubate cells for 24 hours at 37° C., 5% CO2, 95% humidity in a tissue culture incubator.
3) Pin 100 nL of each compound into the assay plates spanning a final concentration range from 100-0.006 μM.
4) Incubate plates for 48 h at 37° C., 5% CO2, 95% humidity. Following incubation, add 5 μL of Alamar blue solution per well and allow to incubate for 1 h at 37° C., 5% CO2, 95% humidity.
5) Read Alamar blue fluorescence using a Thermo Varioskan (570 nm excitation, 585 nm emission). Remove cell media and add 30 μL cell lysis solution with protease inhibitor (G Biosciences, 786-331; 10 μL/mL).
6) Place plates on a plate shaker for 1 h, before removing 20 μL lysate. Transfer cell lysates to 500 μL Eppendorf tubes and centrifuge (Eppendorf Centrifuge 5417C) for 10 min at 13,000 rpm.
7) Add 12 μL of the cell supernatant to 48 μL of standard diluent buffer (1:5). Add these samples to ELISA plate wells. Prepare ASYN standard curve wells as described in the kit manual.
8) Add 50 μL of anti-α-Synuclein (Detection Antibody) solution to each well, tapping the plate to mix. Cover the plate with a tape seal and incubate for 3 h at RT.
9) Wash wells four times with wash buffer using a multichannel pipette and add 100 μL of anti-rabbit IgG-HRP antibody solution to each well. Cover the plate and incubate for 30 min at RT. Wash wells four times with wash buffer and add 100 μL of Stabilized Chromogen to each well. Seal the plate and incubate in the dark at RT for 30 min.
10) Finally, add 100 μL of Stop Solution to each well, tapping the plate to mix, and read absorbance at 450 nm using an Envision plate reader (Perkin Elmer).

α-Syn = experiment: Decrease of α-syn in Triple SNCA cortical neurons; conditions: concentration not given; for Decrease αsyn(%) X3 SNCA neurons: Table 2
[1] = tested on: alpha-synuclein 5′-UTR IRE (SNCA 5′UTR); experiment: Primary screen/retest: ASYN 5′-UTR IRE-driven luciferase expression in H4 cells; format: cell-based, human; conditions: 48 h
SNCA IRE = experiment: Spinach fluorescent assay, SNCA IRE fluorescence sensor R7
α-Synuclein [2] = experiment: Western blots of α-syn in iPSC derived DA neuron lysates; format: cell-based, human; conditions: for inhibition of α-Synuclein protein expression versus β-Syn, γ-Syn, Ferritin, APP and Prion proteins: 1 μM, normalized to β-Actin
α-Synuclein [3] = experiment: Decrease of α-syn in iPSC derived DA neurons; format: cell-based, human; design: Decrease syn(%) DA neurons: dose or concentration left out as unconfirmed; conditions: for Decrease αsyn(%) DA neurons: Table 2; for Decrease syn(%) DA neurons: Table 3
[4] = tested on: PrP-5′UTR (prion protein IRE); format: cell-based, human; conditions: versus SNCA 5′UTR
PGL3 5′UTR = experiment: Secondary (counterscreen) luciferase assay in H4-C cells, IRE stem-loop removed; format: cell-based, human; conditions: versus SNCA 5′UTR
[5] = Homo sapiens, Table 3, H4 cells, luciferase, read-out: IC50/M (SNCA 5′UTR)
[6] = Homo sapiens, Table 2, H4 cells, luciferase, read-out: IC50/μM (SNCA 5′UTR)
[7] = Homo sapiens, read-out: IC50/M (SNCA 5′UTR)
[8] = Homo sapiens, read-out: IC50/μM (SNCA 5′UTR)
[9] = 10 μM and 1 μM compound, 72 h, β-actin standardized, N=3

| SMILES | Selectivity PrP-5′UTR ([4]; Table 3) | Selectivity PGL3 5′UTR (PGL3 5′UTR; Table 3) | IC50 [1, 5] | Selectivity PrP-5′UTR ([4]; Table 2) | Selectivity PGL3 5′UTR (PGL3 5′UTR; Table 2) | IC50 [1, 6] | further results |
| --- | --- | --- | --- | --- | --- | --- | --- |
| CN1CC[C@]2(C)c3cc(OC(=O)Nc4ccccc4)ccc3N(C)[C@H]12 [Posiphen, reference compound] | – | – | – | – | – | – | Decrease αsyn(%) SHSY5Y cells (alpha-synuclein; @10 μM): 25-50 @10%; Decrease syn(%) SHSY5Y cells (alpha-synuclein; @10 µM): 25-50 @10M ^ %; Decrease αsyn(%) X3 SNCA neurons (α-Syn): 5%; Decrease syn(%) X3 SNCA neuron (α-Syn; Table 3): 5%; IC50 ([1]; Table 2, H4 cells, luciferase, read-out: IC50/μM (SNCA 5′UTR)): 10 µM; binding to SNCA IRE (fluorescence of sensor R7) (SNCA IRE): no measurable effect or quenching effect; α-syn levels (Western blot) (α-Synuclein [2]): reduced; Decrease αsyn(%) DA neurons (α-Synuclein [3]; concentration not given): 25%; Decrease syn(%) DA neurons (α-Synuclein [3]; concentration not given): 25% |
| CCC1=Nc2cc(C(=O)NCCCOC)ccc2Sc2ccccc21 [Compound 16, 11-ethyl-N˜8˜-(3-methoxypropyl)dibenzo[b,f][1,4]thiazepine-8-carboxamide] | 127-fold | 68-fold | 0.127 µM | – | – | – | Decrease syn(%) SHSY5Y cells (alpha-synuclein; @ 1 µM): 30-60 @ 1M^ % |
| O=C(c1ccc(C[S+]([O-])c2ccccc2Cl)o1)N1CCN(c2ccccc2)CC1 (centres unmarked) [Compound 12, 1-(5-{[(2-Chlorophenyl)sulfinyl]methyl}-2-furoyl)-4-phenylpiperazine] | Inc. | 80-fold | 0.1 µM | – | – | – | Decrease syn(%) SHSY5Y cells (alpha-synuclein; @ 0.1-1M): 21-42 @ 0.1-1M % |
| CCOC(=O)c1[nH]c(C)c(C(=O)c2cc(F)ccc2F)c1C [Compound 13, Ethyl 4-(2,5-difluorobenzoyl)-3,5-dimethyl-1H-pyrrole-2-carboxylate] | 58-fold | 53-fold | 0.2 µM | – | – | – | Decrease syn(%) SHSY5Y cells (alpha-synuclein; @ 0.1-1M): 20-40 @ 0.1-1M % |
| COc1cccc(N2CCN(C(=O)c3ccc(C[S+]([O-])c4ccc(C)cc4)o3)CC2)c1 (centres unmarked) [Compound 1, (4-(3-methoxyphenyl)piperazin-1-yl)(5-((p-tolylsulfinyl)methyl)furan-2-yl)methanone] | – | – | – | 126-fold | 58-fold | 0.1 µM | Decrease αsyn(%) SHSY5Y cells (alpha-synuclein; @ 1 μM): 14-28 @ 1% |
| COC(=O)c1c(NC(=O)c2ccc([N+](=O)[O-])o2)sc2c1CCN(C(C)C)C2 [Compound 9, methyl 6-isopropyl-2-(5-nitrofuran-2-carboxamido)-4,5,6,7-tetrahydrothieno[2,3-c]pyridine-3-carboxylate] | – | 1,200-fold | – | – | 1,200-fold | – | IC50 [1, 7]: 0.1 µM; IC50 [1, 8]: 0.1 µM; inhibition of α-Synuclein protein expression versus β-Syn, γ-Syn, Ferritin, APP and Prion proteins (α-Synuclein [2]; 72 h): selectively inhibit; α-syn levels (Western blot) (α-Synuclein [2]; [9]): reduced; Decrease αsyn(%) DA neurons (α-Synuclein [3]; @ 1 μM): 90 @ 1 μM %; Decrease syn(%) DA neurons (α-Synuclein [3]): 90 @ 1M % |
| COc1cccc(N2CCN(C(=O)c3ccc(C[S+]([O-])c4ccc(C)cc4)o3)CC2)c1 (centres unmarked) [Compound 11, 1-(3-Methoxyphenyl)-4-(5-{[(4-methylphenyl)sulfinyl]methyl}-2-furoyl)piperazine] | 126-fold | 58-fold | 0.1 µM | – | – | – | Decrease syn(%) SHSY5Y cells (alpha-synuclein; @ 1 µM): 14-28 @ 1M^ %; binding to SNCA IRE (fluorescence of sensor R7) (SNCA IRE): binds strongly |
| COc1ccc(/C=C/C(=O)c2cc(F)ccc2OC(=O)c2ccccc2)cc1OC [Compound 5, (E)-2-(3-(3,4-dimethoxyphenyl)acryloyl)-4-fluorophenyl benzoate] | – | – | – | Inc. | 66-fold | 0.194 µM | Decrease αsyn(%) SHSY5Y cells (alpha-synuclein; @ 0.1 μM): 20-50 @ 0.1% |
| CCC1=Nc2cc(C(=O)NCCCOC)ccc2Sc2ccccc21 [Compound 7, 11-ethyl-N-(3-methoxypropyl)dibenzo[b,f][1,4]thiazepine-8-carboxamide] | – | – | – | 127-fold | 68-fold | 0.127 µM | Decrease αsyn(%) SHSY5Y cells (alpha-synuclein; @ 1 μM): 30-60 @ 1% |
| Cc1cc(C)cc(Nc2nc3ccc(C)cc3n3cnnc23)c1 [Compound 4, N-(3,5-dimethylphenyl)-8-methyl-[1,2,4]triazolo[4,3-a]quinoxalin-4-amine] | – | – | – | 18-fold | 43-fold | 2.8 µM | Decrease αsyn(%) SHSY5Y cells (alpha-synuclein; @ 1 μM): 25-50 @ 1% |
| CCOC(=O)c1[nH]c(C)c(C(=O)c2cc(F)ccc2F)c1C [Compound 8, ethyl 4-(2,5-difluorobenzoyl)-3,5-dimethyl-1H-pyrrole-2-carboxylate] | – | – | – | 58-fold | 53-fold | 0.2 µM | Decrease αsyn(%) SHSY5Y cells (alpha-synuclein; @ 0.1-1 μM): 20-40 @ 0.1-1% |
| Cc1cc(C)cc(Nc2nc3ccc(C)cc3n3cnnc23)c1 [Compound 15, N-(3,5-dimethylphenyl)-8-methyl[1,2,4]triazolo[4,3-a]quinoxalin-4-amine] | 18-fold | 43-fold | 2.8 µM | – | – | – | Decrease syn(%) SHSY5Y cells (alpha-synuclein; @ 1 µM): 25-50 @ 1M^ % |
| O=C(c1ccc(C[S+]([O-])c2ccccc2Cl)o1)N1CCN(c2ccccc2)CC1 (centres unmarked) [Compound 6, (5-(((2-chlorophenyl)sulfinyl)methyl)furan-2-yl)(4-phenylpiperazin-1-yl)methanone] | – | – | – | Inc. | 80-fold | 0.1 µM | Decrease αsyn(%) SHSY5Y cells (alpha-synuclein; @ 0.1-1 μM): 21-42 @ 0.1-1% |
| CN(C)c1nc(N)nc(CSc2nnnn2-c2cccc3ccccc23)n1 [Compound 10, N^2,N^2-dimethyl-6-(((1-(naphthalen-1-yl)-1H-tetrazol-5-yl)thio)methyl)-1,3,5-triazine-2,4-diamine] | 35-fold | 34-fold | – | 35-fold | 34-fold | – | Decrease αsyn(%) SHSY5Y cells (alpha-synuclein; @ 0.1 μM): 19-38 @ 0.1%; Decrease syn(%) SHSY5Y cells (alpha-synuclein; @ 0.1 µM): 19-38 @ 0.1M %; Decrease αsyn(%) X3 SNCA neurons (α-Syn): 25%; IC50 [1, 7]: 1.8 to 3.5 µM; IC50 [1, 8]: 1.8 to 3.5 µM; inhibition of α-Synuclein protein expression versus β-Syn, γ-Syn, Ferritin, APP and Prion proteins (α-Synuclein [2]; 72 h): selectively inhibit; α-syn levels (Western blot) (α-Synuclein [2]; [9]): reduced; Decrease αsyn(%) DA neurons (α-Synuclein [3]; @ 1 μM): 60 @ 1 μM %; Decrease syn(%) DA neurons (α-Synuclein [3]): 60 @ 1M % |
| COC(=O)C1CC23C=CCN4CCC5(c6ccccc6NC15C2C)C43 (centres unmarked) [Compound 3, methyl 14-methyl-4,5,11,12-tetrahydro-1H,3a^1H,6H-3a,5a-methanoindolizino[8,1-cd]carbazole-5-carboxylate] | 17-fold | 31-fold | – | 17-fold | 31-fold | – | Decrease αsyn(%) SHSY5Y cells (alpha-synuclein; @ 1-10 μM): 15-19 @ 1-10%; Decrease syn(%) SHSY5Y cells (alpha-synuclein; @ 1-10M): 15-19 @ 1-10M %; Decrease αsyn(%) X3 SNCA neurons (α-Syn): 50%; IC50 [1, 7]: 0.134 µM; IC50 [1, 8]: 0.134 µM; inhibition of α-Synuclein protein expression versus β-Syn, γ-Syn, Ferritin, APP and Prion proteins (α-Synuclein [2]; 72 h): selectively inhibit; α-syn levels (Western blot) (α-Synuclein [2]; [9]): reduced; Decrease αsyn(%) DA neurons (α-Synuclein [3]; @ 1 μM): 60 @ 1 μM %; Decrease syn(%) DA neurons (α-Synuclein [3]): 60 @ 1M % |
| COc1ccc(/C=C/C(=O)c2cc(F)ccc2OC(=O)c2ccccc2)cc1OC [Compound 14, 2-[(2E)-3-(3,4-dimethoxyphenyl)prop-2-enoyl]-4-fluorophenyl benzoate] | Inc. | 66-fold | 0.194 µM | – | – | – | Decrease syn(%) SHSY5Y cells (alpha-synuclein; @ 0.1 µM): 20-50 @ 0.1M % |
